The values that follow come from article PMC6238539, “Discovery of a cofactor-independent inhibitor of Mycobacterium tuberculosis InhA” (Life Science Alliance, 2018).

Data set [1] addresses T1, M. tuberculosis InhA (Mycobacterium tuberculosis, UniProt P9WGR1). Description: InhA in vitro inhibition assay. It is filed as biochemical.
Data set [2] concerns M. tuberculosis H37Rv. Nature of the data set: microbe, parasite or virus in culture. It is filed as cell-based, Mycobacterium tuberculosis. To be noted: for IC90: Mycobacterium tuberculosis, H37RV, whole-cell M. tuberculosis.
In data set [3] the target is T1, M. tuberculosis InhA. Nature of the data set: biochemical. Format: binding.
The next data set concerns M. tuberculosis Erdman. Format: in vivo, Mycobacterium tuberculosis. To be noted: dose escalation study (Table S4), 25 mg/kg, day 22.
Data set [4] concerns intracellular M. tuberculosis in THP-1 cells. Nature of the data set: microbe, parasite or virus in culture. It is filed as cell-based. To be noted: Mycobacterium tuberculosis.
The nature of data set [5]: in vitro. Format: cell-based. The note with it: human; read-out: HepG2 cytotoxicity IC50. Here is the method: HepG2 human liver cells (ATCC HB 8065) were propagated in DMEM containing either 25 mM glucose or 10 mM galactose plus 10% vol/vol FBS, 1 mM sodium pyruvate, 2 mM Corning glutagro, 100 U/ml penicillin, and 100 μg/ml streptomycin. The cells were seeded in 384-well plates at 1,800 cells per well and incubated in a humidified incubator at 37°C, 5% CO2. Compounds were solubilized in DMSO and assayed using a 10-point threefold serial dilution. Compounds were added 24 h post cell seeding to a final assay concentration of 1% DMSO and highest compound concentration of 100 μM. The cells were incubated for 72 h and viability measured using CellTiter-Glo reagent (Promega) and reading RLU. Growth inhibition curves were fitted using the Levenberg–Marquardt algorithm. The IC50 was defined as the compound concentration that produced 50% of the inhibitory response against HepG2 cells.

Data set [6] has as its system M. tuberculosis H37Rv. Description: Kill kinetics under replicating conditions. Format: cell-based, Mycobacterium tuberculosis.
Data set [7] is described as follows: in vitro. To be noted: human.

Where two headings read alike, the source gives them in different places.

T1 sequence (P9WGR1 whole entry, looked up): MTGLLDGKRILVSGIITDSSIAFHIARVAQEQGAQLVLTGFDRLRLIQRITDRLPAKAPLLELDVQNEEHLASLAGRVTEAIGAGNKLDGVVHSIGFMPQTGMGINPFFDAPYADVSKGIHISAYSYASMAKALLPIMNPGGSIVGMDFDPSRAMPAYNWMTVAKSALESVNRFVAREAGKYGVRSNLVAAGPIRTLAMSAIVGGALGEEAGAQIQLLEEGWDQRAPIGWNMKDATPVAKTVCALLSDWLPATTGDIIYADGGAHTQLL

The IC50 is the midpoint of a concentration-inhibition curve. Broadly, the IC90 is the concentration at which the effect reaches the 90% level. Low values mean greater potency, high ones weaker potency. For `CS(=O)(=O)N1N=Cc2ccc(Oc3ccc(C#N)cc3)cc2B1O` [AN6534], at M. tuberculosis InhA [1], the IC50 was determined as 79 µM. Moreover, in the data set on M. tuberculosis H37Rv [2], the IC90 is 36 ± 1.7 µM.
In general, Kd refers to the equilibrium constant for the complex coming apart. Consider `CCS(=O)(=O)N1N=Cc2cc(Oc3ccc(C(F)(F)F)cc3/C=N/O)ccc2B1O` [AN12908], for which half-maximal inhibition against M. tuberculosis InhA [1] (IC50) was put at 2.3 µM. Also, in the data set on M. tuberculosis H37Rv [2], the IC90 turned out to be 7 ± 2.6 µM. Further, at M. tuberculosis InhA [3], the “cofactor dependence of binding to InhA” value is “dependent on NAD^+ for binding”. On M. tuberculosis InhA [3] (cofactor: NAD^+), the Kd is 0.847 ± 0.318 µM, the “N (stoichiometry of binding)” value is 0.49 ± 0.022, the “∆H” value was −25,010 ± 1,496 cal/mol and the “∆S” value is −56 cal/mol/deg.
Molecule `NNC(=O)c1ccncc1` [INH, isoniazid] registered an IC90 in the data set with M. tuberculosis H37Rv [2] of 0.2 µM. Also, the “Mean ± SEM Log10 CFU” value in the data set with M. tuberculosis Erdman (lung) is reported as 4.6 ± 0.06 Log10 CFU; in the data set on M. tuberculosis Erdman (spleen), 2.4 ± 0.15 Log10 CFU.
Molecule `OB1OCc2ccc(Oc3ccc(C(F)(F)F)cc3)cc21` [AN2918] gave an IC50 on M. tuberculosis InhA [1] of 44 µM. Besides, the IC90 in the data set on M. tuberculosis H37Rv [2] was greater than 200 µM.
As for `CS(=O)(=O)N1N=Cc2ccc(Oc3ccc(C(F)(F)F)cc3/C=N/O)cc2B1O` [AN12541], the IC50 was 0.4 µM against M. tuberculosis InhA [1], 0.046 ± 0.013 µM in data set [4], greater than 100 µM in the data set “in vitro [5]” and greater than 50 µM in “in vitro [7]”. Further, the “increase in potency against purified InhA” value on M. tuberculosis InhA [1] (versus AN6534) was 190 fold. Besides, the IC90 in the data set with M. tuberculosis H37Rv [2] came to 0.11 ± 0.21 µM; in data set [4], 0.11 ± 0.01 µM. In addition, the “increase in potency against M. tuberculosis” value in the data set with M. tuberculosis H37Rv [2] (versus AN6534) stood at 350 fold. Besides, the bactericidal activity result in the data set on M. tuberculosis H37Rv [6] is reported as “similarly active”.
Consider `N#Cc1ccc(Oc2ccc3c(c2)COB3O)c(/C=N/O)c1` [AN3438], for which it took 12 µM to reach half-maximal inhibition on M. tuberculosis InhA [1] (IC50). Also, in the data set on M. tuberculosis H37Rv [2], the 90% effect level (IC90) was put at 16 ± 1.2 µM.
